Square brackets hold non-standard residues; d marks the D form. Peptide text beside a SMILES is read from it. * marks the point of attachment. Api = NC1(C(=O)O)CCNCC1; PhAc = O=C(Cc1ccccc1)*; Ac3c = NC1(C(=O)O)CC1; Aib = CC(C)(N)C(=O)O
target: PDL-1 (Homo sapiens (Human), UniProt Q9NZQ7); assay: KD binding (Table 1)
Sequence (Q9NZQ7 19-290): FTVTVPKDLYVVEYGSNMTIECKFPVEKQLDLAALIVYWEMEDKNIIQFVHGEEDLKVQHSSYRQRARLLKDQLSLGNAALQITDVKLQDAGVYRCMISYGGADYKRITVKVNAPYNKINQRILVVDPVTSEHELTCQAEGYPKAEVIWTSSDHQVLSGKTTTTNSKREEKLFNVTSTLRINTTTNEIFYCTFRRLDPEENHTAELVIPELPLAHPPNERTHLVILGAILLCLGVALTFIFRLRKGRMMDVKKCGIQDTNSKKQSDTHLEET

Structure (SMILES)	KD
CNC(=O)C(C)(C)NC(=O)c1cc(CN(C)C)cc(NC(=O)Cc2ccc(F)cc2)c1 [compound 18]	No Binding
CC(C)(NC(=O)c1cc(NC(=O)Cc2ccc(F)cc2)cc(CN)c1F)C(N)=O [compound 16]	No Binding

The remaining lines, values ahead:

KD	Structure (SMILES)
No Binding	NCc1cc(NC(=O)Cc2ccccc2)cc(C(=O)NC2(C(N)=O)CCCC2)c1 [compound 7]
No Binding	CC(C)(NC(=O)c1cc(CN)cc(NC(=O)Cc2ccccc2)c1)C(N)=O [Compound No. 1, 2-[[3-(Aminomethyl)-5-(2-phenylacetamido)phenyl]formamido]-2-methylpropanamide]

tested on: PDL-1 signaling; assay: Luciferase assay (Table 1); format: cell-based

Structure (SMILES)	EC50
CC(C)(NC(=O)c1cc(CN)cc(NC(=O)Cc2ccc(F)cc2)c1)C(N)=O [Compound No. 2]	0.93 µM
CC(C)(NC(=O)c1ccc(CN)c(NC(=O)Cc2ccccc2)c1)C(N)=O [compound 14]	1.19 µM
CC(C)(NC(=O)C1(NC(=O)Cc2ccc(F)cc2)CCNCC1)C(N)=O [compound 23]	9.02 µM
NC(=O)C1(NC(=O)C2(NC(=O)Cc3ccc(F)cc3)CCNCC2)CC1 [compound 25]	0.36 µM
CC(C)(NC(=O)c1cc(NC(=O)Cc2ccc(F)cc2)ccc1CN)C(N)=O [compound 12]	14.3 µM
CN(C)Cc1cc(NC(=O)Cc2ccc(F)cc2)cc(C(=O)NC(C)(C)C(N)=O)c1 [compound 17]	0.21 µM
CC(C)(NC(=O)C1(NC(=O)Cc2ccccc2)CCNCC1)C(N)=O [Compound No. 22, 2-methyl-2-[[4-(2-phenylacetamido)piperidin-4-yl]formamido]propanamide] (PhAc-[Api]-[Aib]-NH2)	4.22 µM
CNC(=O)C(C)(C)NC(=O)c1cc(CN(C)C)cc(NC(=O)Cc2ccc(F)cc2)c1 [compound 18]	21 µM
CC(C)(NC(=O)c1cc(NC(=O)Cc2ccccc2)ccc1CN)C(N)=O [compound 11]	20 µM
CC(C)(NC(=O)c1cc(NC(=O)Cc2ccc(F)cc2)cc(CN)c1F)C(N)=O [compound 16]	20.6 µM
NC(=O)C1(NC(=O)C2(NC(=O)Cc3ccccc3)CCNCC2)CC1 [compound 24] (PhAc-[Api]-[Ac3c]-NH2)	7.73 µM
CC(C)(NC(=O)c1ccc(CN)c(NC(=O)Cc2ccc(F)cc2)c1)C(N)=O [compound 13]	20.4 µM
CC(C)(NC(=O)c1cc(NC(=O)Cc2ccccc2)cc(CN)c1F)C(N)=O [compound 15]	19.3 µM
CNC(=O)C(C)(C)NC(=O)c1cc(CN)cc(NC(=O)Cc2ccc(F)cc2)c1 [compound 19]	20.7 µM

Other lines, results leading:

EC50	Structure (SMILES)
26.1 µM	NCc1cc(NC(=O)Cc2ccccc2)cc(C(=O)NC2(C(N)=O)CCCC2)c1 [compound 7]
7.06 µM	NCc1cc(NC(=O)Cc2ccc(F)cc2)cc(C(=O)NC2(C(N)=O)CCC2)c1 [compound 10]
15.7 µM	NCc1cc(NC(=O)Cc2ccc(F)cc2)cc(C(=O)NC2(C(N)=O)CC2)c1 [compound 4]
0.39 µM	CC(C)(NC(=O)c1cc(CN)cc(NC(=O)Cc2ccccc2)c1)C(N)=O [Compound No. 1, 2-[[3-(Aminomethyl)-5-(2-phenylacetamido)phenyl]formamido]-2-methylpropanamide]
27.1 µM	NCc1cc(NC(=O)Cc2ccccc2)cc(C(=O)NC2(C(N)=O)CCC2)c1 [compound 6]
12.6 µM	NCc1cc(NC(=O)Cc2ccccc2)cc(C(=O)NC2(C(N)=O)CC2)c1 [compound 3]
0.07 µM	NCc1cc(NC(=O)Cc2ccc(F)cc2)cc(C(=O)NCC(N)=O)c1 [compound 9]

Source: US20240010642A1, “MODULATORS OF PROGRAMMED DEATH-LIGAND-1” (SOUTHERN RESEARCH INSTITUTE, priority 2021, published 2024)
